According to patent US20040014047A1, “Antisense modulation of LIM domain kinase 1 expression” (Isis Pharmaceuticals Inc., priority 2002, published 2004):
Strand notation (5' to 3'): a small letter for the sugar, then the base; units joined by * are phosphorothioate-linked, units joined directly phosphodiester-linked; [ ] holds rarer units or linkages, { } end groups; capitals alone tell only the bases. e = 2'-O-(2-methoxyethyl) (MOE); [5mC] = 5-methylcytosine; d = 2'-deoxy (DNA)

Each substance was assayed on human LIM domain kinase 1 mRNA (assay: Antisense inhibition of human LIM domain kinase 1 mRNA levels, quantitative real-time PCR, A549 cells (screen)). Conditions: quantitative real-time PCR, averages from two experiments, screening concentration not given (50 nM to 300 nM used herein).
Assay type: cell-based
Protocol: When cells reached 70% confluency, they were treated with oligonucleotide. […] Cells were harvested 16-24 hours after oligonucleotide treatment.
Vacuum was applied for 1 minute.
PCR reagents were obtained from Invitrogen Corporation, (Carlsbad, Calif.).
Total RNA is quantified using RiboGreenTM RNA quantification reagent from Molecular Probes.
Probes and primers to human LIM domain kinase 1 were designed to hybridize to a human LIM domain kinase 1 sequence, using published sequence information (GenBank accession number D26309.1, incorporated herein as SEQ ID NO:4). For human LIM domain kinase 1 the PCR primers were: forward primer: […] (SEQ ID NO: 5) reverse primer: […] (SEQ ID NO: 6) and the PCR probe was: FAM-[…]-TAMRA (SEQ ID NO: 7) where FAM is the fluorescent dye and TAMRA is the quencher dye.
All cytidine residues are 5-methylcytidines. […] Data are averages from two experiments in which A549 cells were treated with the oligonucleotides of the present invention. […] If present, “N.D.” indicates “no data”.

Row | Substance | % INHIB (inhibition of human LIM domain kinase 1 mRNA levels)
1 | 206161 (eA*eA*e[5mC]*e[5mC]*eT*d[5mC]*dA*dT*dG*d[5mC]*dA*d[5mC]*dT*d[5mC]*dG*eA*e[5mC]*eG*eG*eG; antisense) [compound 206161] | 82%
2 | 206162 (e[5mC]*eT*eG*e[5mC]*eT*dG*d[5mC]*dA*dG*d[5mC]*d[5mC]*dG*dT*dA*dT*eG*eA*eA*eA*eA; antisense) [compound 206162] | 74%
3 | 206163 (eG*eT*e[5mC]*eA*eA*d[5mC]*d[5mC]*dT*d[5mC]*dA*dT*dG*d[5mC]*dA*d[5mC]*eT*e[5mC]*eG*eA*e[5mC]; antisense) [compound 206163] | 79%
4 | 206164 (e[5mC]*eA*eG*eG*eT*dG*d[5mC]*dA*dA*d[5mC]*dA*dA*dA*dG*dT*eA*eG*e[5mC]*eG*eT; antisense) [compound 206164] | 75%
5 | 206165 (e[5mC]*e[5mC]*e[5mC]*eT*e[5mC]*d[5mC]*dA*dG*dG*dT*dG*d[5mC]*dA*dA*d[5mC]*eA*eA*eA*eG*eT) [compound 206165] | 22%
6 | 206166 (eT*eT*e[5mC]*eT*eT*d[5mC]*d[5mC]*d[5mC]*dT*d[5mC]*d[5mC]*dA*dG*dG*dT*eG*e[5mC]*eA*eA*e[5mC]; antisense) [compound 206166] | 70%
7 | 206167 (eA*eT*eA*e[5mC]*eG*dT*dT*d[5mC]*dT*dT*d[5mC]*d[5mC]*d[5mC]*dT*d[5mC]*e[5mC]*eA*eG*eG*eT; antisense) [compound 206167] | 85%
8 | 206168 (eT*e[5mC]*eT*e[5mC]*e[5mC]*d[5mC]*dA*dT*dA*d[5mC]*dG*dT*dT*d[5mC]*dT*eT*e[5mC]*e[5mC]*e[5mC]*eT; antisense) [compound 206168] | 36%
9 | 206169 (e[5mC]*eT*eT*e[5mC]*e[5mC]*dT*d[5mC]*dT*d[5mC]*d[5mC]*d[5mC]*dA*dT*dA*d[5mC]*eG*eT*eT*e[5mC]*eT; antisense) [compound 206169] | 67%
10 | 206170 (eG*e[5mC]*eA*eA*e[5mC]*dT*d[5mC]*dG*d[5mC]*dT*dT*d[5mC]*d[5mC]*dT*dT*e[5mC]*e[5mC]*eT*e[5mC]*eT; antisense) [compound 206170] | 43%
11 | 206171 (eA*eG*eG*eG*e[5mC]*d[5mC]*dT*dG*dG*dA*dG*dG*dT*dA*d[5mC]*eT*eG*eG*e[5mC]*e[5mC]; antisense) [compound 206171] | 83%
12 | 206172 (eT*e[5mC]*e[5mC]*eT*eT*d[5mC]*dT*dT*dG*d[5mC]*dA*dG*dA*dA*dG*eA*eG*e[5mC]*eT*eG; antisense) [compound 206172] | 76%
13 | 206173 (eA*eG*eT*eA*eG*dT*d[5mC]*d[5mC]*dT*dT*d[5mC]*dT*dT*dG*d[5mC]*eA*eG*eA*eA*eG; antisense) [compound 206173] | 71%
14 | 206174 (antisense eG*eG*e[5mC]*e[5mC]*e[5mC]*dA*dG*dT*dA*dG*dT*d[5mC]*d[5mC]*dT*dT*e[5mC]*eT*eT*eG*e[5mC]) [compound 206174] | 87%
15 | 206175 (antisense eT*eA*eG*e[5mC]*eG*dG*dG*d[5mC]*d[5mC]*d[5mC]*dA*dG*dT*dA*dG*eT*e[5mC]*e[5mC]*eT*eT) [compound 206175] | 83%
16 | 206176 (antisense e[5mC]*eG*e[5mC]*e[5mC]*eA*dT*dA*dG*d[5mC]*dG*dG*dG*d[5mC]*d[5mC]*d[5mC]*eA*eG*eT*eA*eG) [compound 206176] | 87%
17 | 206177 (antisense eA*eG*e[5mC]*eT*eT*dG*dG*dA*dG*dT*dG*d[5mC]*dT*d[5mC]*d[5mC]*eA*e[5mC]*e[5mC]*eA*eG) [compound 206177] | 86%
18 | 206178 (antisense eA*eG*eT*eA*e[5mC]*dA*dG*d[5mC]*dT*dT*dG*dG*dA*dG*dT*eG*e[5mC]*eT*e[5mC]*e[5mC]) [compound 206178] | 69%
19 | 206179 (antisense eG*e[5mC]*eA*eG*eT*dG*d[5mC]*d[5mC]*d[5mC]*dG*d[5mC]*dA*dG*dT*dA*e[5mC]*eA*eG*e[5mC]*eT) [compound 206179] | 75%
20 | 206180 (antisense eA*e[5mC]*eA*eT*e[5mC]*dT*dG*dG*dG*d[5mC]*dT*d[5mC]*dA*dT*dG*e[5mC]*eA*eG*e[5mC]*e[5mC]) [compound 206180] | 77%

Row | Substance | % INHIB (inhibition of human LIM domain kinase 1 mRNA levels)
21 | 206181 (antisense eT*e[5mC]*eT*eT*e[5mC]*dA*d[5mC]*dA*dT*d[5mC]*dT*dG*dG*dG*d[5mC]*eT*e[5mC]*eA*eT*eG) [compound 206181] | 54%
22 | 206182 (antisense eG*eG*eA*eA*eT*dT*d[5mC]*dT*dT*d[5mC]*dA*d[5mC]*dA*dT*d[5mC]*eT*eG*eG*eG*e[5mC]) [compound 206182] | 86%
23 | 206183 (antisense eT*eG*eG*eA*eT*dG*dG*dA*dA*dT*dT*d[5mC]*dT*dT*d[5mC]*eA*e[5mC]*eA*eT*e[5mC]) [compound 206183] | 79%
24 | 206184 (antisense eA*eT*eT*eT*e[5mC]*d[5mC]*dA*dA*dG*dA*dT*d[5mC]*d[5mC]*dG*dG*eT*e[5mC]*eT*e[5mC]*e[5mC]) [compound 206184] | 74%
25 | 206185 (antisense eG*e[5mC]*e[5mC]*eA*eT*dT*dG*dA*dT*dT*dT*d[5mC]*d[5mC]*dA*dA*eG*eA*eT*e[5mC]*e[5mC]) [compound 206185] | 86%
26 | 206186 (antisense eG*eG*e[5mC]*eG*eT*dG*d[5mC]*d[5mC]*dA*dT*dT*dG*dA*dT*dT*eT*e[5mC]*e[5mC]*eA*eA) [compound 206186] | 72%
27 | 206187 (antisense eT*e[5mC]*eA*eG*e[5mC]*dT*dG*dG*dA*dG*d[5mC]*dA*dG*dG*d[5mC]*eG*eG*e[5mC]*eT*eG) [compound 206187] | 60%
28 | 206188 (antisense eT*e[5mC]*eG*eA*eG*dG*dG*dT*d[5mC]*dA*dG*d[5mC]*dT*dG*dG*eA*eG*e[5mC]*eA*eG) [compound 206188] | 71%
29 | 206189 (antisense eG*eT*eT*eT*e[5mC]*dT*dG*d[5mC]*d[5mC]*dG*dG*dG*d[5mC]*dA*dG*eA*eG*e[5mC]*eT*eG) [compound 206189] | 81%
30 | 206190 (antisense eG*eA*e[5mC]*eA*eG*dG*dT*dT*dT*d[5mC]*dT*dG*d[5mC]*d[5mC]*dG*eG*eG*e[5mC]*eA*eG) [compound 206190] | 88%
31 | 206191 (antisense e[5mC]*eT*e[5mC]*eA*eA*dG*dA*d[5mC]*dA*dG*dG*dT*dT*dT*d[5mC]*eT*eG*e[5mC]*e[5mC]*eG) [compound 206191] | 62%
32 | 206192 (antisense eA*eG*e[5mC]*eT*e[5mC]*d[5mC]*dT*d[5mC]*dA*dA*dG*dA*d[5mC]*dA*dG*eG*eT*eT*eT*e[5mC]) [compound 206192] | 54%
33 | 206193 (antisense eA*eG*eG*eT*e[5mC]*d[5mC]*dT*dT*dG*d[5mC]*dG*d[5mC]*dT*dG*dG*eG*eA*eG*eG*e[5mC]) [compound 206193] | 67%
34 | 206194 (antisense eG*eA*e[5mC]*e[5mC]*e[5mC]*dA*dG*dG*dT*d[5mC]*d[5mC]*dT*dT*dG*d[5mC]*eG*e[5mC]*eT*eG*eG) [compound 206194] | 41%
35 | 206195 (antisense eT*e[5mC]*eA*e[5mC]*eG*dG*dT*dG*dT*dG*dT*d[5mC]*dA*d[5mC]*d[5mC]*eT*eT*eG*eA*eT) [compound 206195] | 73%
36 | 206196 (antisense eA*e[5mC]*e[5mC]*eT*eT*d[5mC]*dA*d[5mC]*d[5mC]*dT*d[5mC]*d[5mC]*dT*dT*dG*eA*eG*eG*eA*eA) [compound 206196] | 47%
37 | 206197 (antisense eG*e[5mC]*eA*eT*e[5mC]*dG*d[5mC]*dA*dT*dG*dA*d[5mC]*d[5mC]*dT*dT*e[5mC]*eA*e[5mC]*e[5mC]*eT) [compound 206197] | 71%
38 | 206198 (antisense eT*e[5mC]*e[5mC]*eA*eG*dG*d[5mC]*dA*dT*d[5mC]*dG*d[5mC]*dA*dT*dG*eA*e[5mC]*e[5mC]*eT*eT) [compound 206198] | 86%
39 | 206199 (antisense eT*eG*eT*e[5mC]*e[5mC]*dA*dT*dG*d[5mC]*dT*d[5mC]*dT*dT*dG*dA*eT*eG*eA*eT*eG) [compound 206199] | 68%
